Test results taken from publication PMC7036909, “Discovery of Selective SIRT2 Inhibitors as Therapeutic Agents in B-Cell Lymphoma and Other Malignancies” (Molecules, 2020).
Where two headings read alike, the source gives them in different places.

Experiments:
[1] = test system: OCI-Ly8-LAM-53 (OCI, DLBCL) cells; test: Cell viability (CellTiter-Glo), OCI; format: cell-based; conditions: 72 h, cellular ATP; read-out: OCI LC50
Description: (§1) With selective SIRT2 inhibitors in hand, we proceeded to evaluate cytotoxicity of our compounds in Daudi, Raji (Burkitt lymphoma) and OCI-Ly8-LAM-53 (OCI, a representative of several Diffuse Large B-Cell Lymphoma lines; DLBCL) cell lines. Briefly, cells were plated in 96-well plates and treated with inhibitors at desired concentrations for 72 h. Cellular viability was determined by measuring the amount of cellular ATP using CellTiter-Glo assay kit (Promega) and normalized against DMSO-treated controls. […] Selected inhibitors were further evaluated in an expanded panel of cancer cell lines including breast cancer (MCF-7 and MDA-MB231), prostate cancer (PC-3) and glioblastoma multiforme (U-251). […] However, the trend in potency as a function of the structure is consistent with the results obtained against lymphoma cell lines. […] . Cell lines were obtained from ATCC (Manassas, VA, USA) and were grown under standard conditions as recommended. For viability assays, 3000 cells per well were dispensed into 96-well plates and treated with test compounds (final DMSO concentration 0.25%). Cells were incubated with test compounds (or DMSO controls) for 72 h or 5 days as noted at 37 °C in 5% CO2 and viability was determined using the CellTiter-Glo Assay (Promega Corp.) according to manufacturer’s instructions.

SIRT1 [2] = target: T1, SIRT1 (Homo sapiens, UniProt Q96EB6); set-up: purchased Cayman Chemical; conditions: cited from earlier work
T1 sequence (Q96EB6 1-747): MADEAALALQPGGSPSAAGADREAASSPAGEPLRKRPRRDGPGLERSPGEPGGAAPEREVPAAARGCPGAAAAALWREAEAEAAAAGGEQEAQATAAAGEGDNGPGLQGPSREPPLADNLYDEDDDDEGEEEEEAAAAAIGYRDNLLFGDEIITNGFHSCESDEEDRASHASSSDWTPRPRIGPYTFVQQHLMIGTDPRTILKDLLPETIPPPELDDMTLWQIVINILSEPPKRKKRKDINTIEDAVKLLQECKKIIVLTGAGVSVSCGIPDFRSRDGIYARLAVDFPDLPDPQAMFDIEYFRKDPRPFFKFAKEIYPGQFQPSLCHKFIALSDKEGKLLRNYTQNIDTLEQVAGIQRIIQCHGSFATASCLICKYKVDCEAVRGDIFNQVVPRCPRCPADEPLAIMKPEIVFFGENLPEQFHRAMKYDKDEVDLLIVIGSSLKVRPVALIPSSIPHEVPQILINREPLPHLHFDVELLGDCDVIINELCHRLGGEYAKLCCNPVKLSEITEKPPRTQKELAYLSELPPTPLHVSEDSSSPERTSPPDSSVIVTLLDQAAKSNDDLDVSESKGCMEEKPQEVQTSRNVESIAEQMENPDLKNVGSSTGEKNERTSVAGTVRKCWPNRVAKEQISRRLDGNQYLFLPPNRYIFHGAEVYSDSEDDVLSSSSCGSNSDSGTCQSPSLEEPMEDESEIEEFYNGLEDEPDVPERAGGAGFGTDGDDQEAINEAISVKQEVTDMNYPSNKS

SIRT3 [3] = target: T2, SIRT3 (Homo sapiens, UniProt Q9NTG7); set-up: purchased Cayman Chemical; conditions: Figure 1, authors' previous work; cited from earlier work
T2 sequence (Q9NTG7 1-399): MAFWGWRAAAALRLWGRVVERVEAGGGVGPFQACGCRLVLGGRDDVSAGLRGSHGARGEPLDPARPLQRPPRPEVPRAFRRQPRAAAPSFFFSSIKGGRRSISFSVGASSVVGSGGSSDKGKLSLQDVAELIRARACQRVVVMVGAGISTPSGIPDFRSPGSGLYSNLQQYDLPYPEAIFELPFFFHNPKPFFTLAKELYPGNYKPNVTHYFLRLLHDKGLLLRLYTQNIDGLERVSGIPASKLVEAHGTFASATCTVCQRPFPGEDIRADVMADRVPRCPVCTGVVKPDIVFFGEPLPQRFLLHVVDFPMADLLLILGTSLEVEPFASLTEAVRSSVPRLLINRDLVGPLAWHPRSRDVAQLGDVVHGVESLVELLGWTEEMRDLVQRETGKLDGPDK

SIRT2 [4] = target: T3, SIRT2 (Homo sapiens, UniProt Q8IXJ6); set-up: purchased Cayman Chemical; conditions: abstract and Figure 1, authors' previous work; cited from earlier work
T3 sequence (Q8IXJ6 1-389): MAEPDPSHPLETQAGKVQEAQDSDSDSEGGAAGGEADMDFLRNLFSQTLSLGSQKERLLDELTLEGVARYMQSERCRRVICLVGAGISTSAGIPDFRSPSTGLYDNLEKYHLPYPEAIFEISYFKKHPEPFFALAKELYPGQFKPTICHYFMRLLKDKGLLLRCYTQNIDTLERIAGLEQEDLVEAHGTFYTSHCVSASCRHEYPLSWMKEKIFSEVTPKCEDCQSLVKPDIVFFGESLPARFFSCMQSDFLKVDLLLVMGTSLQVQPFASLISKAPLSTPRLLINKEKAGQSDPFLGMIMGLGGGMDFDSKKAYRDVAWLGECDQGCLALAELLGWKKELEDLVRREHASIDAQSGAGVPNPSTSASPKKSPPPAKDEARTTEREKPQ

[5] = test system: MCF-7 breast cancer cells; test: Cell viability (CellTiter-Glo), MCF-7; format: cell-based; conditions: Homo sapiens, MCF7; cellular ATP; read-out: MCF7 LC50
Description: as §1

[6] = test system: Raji (Burkitt lymphoma) cells; test: Cell viability (CellTiter-Glo), Raji; format: cell-based; conditions: Homo sapiens, 72 h, cellular ATP, read-out: Raji LC50
Description: as §1

[7] = test system: U-251 glioblastoma multiforme cells; test: Cell viability (CellTiter-Glo), U-251; format: cell-based; conditions: Homo sapiens, cellular ATP, read-out: U251 LC50
Description: as §1

SIRT2 [8] = target: T3, SIRT2; test: SIRT-Glo enzyme inhibition assay, SIRT2; conditions: for IC50: SIRT2 IC50; for inhibition at 50 µM: read-out: SIRT2 percentage inhibition at 50 µM compound, 50 µM compound
Description: (§2) SIRT1, SIRT2, and SIRT3 were purchased from Cayman Chemical. Enzyme inhibition assays were performed in 96-well black plates using the SIRT-Glo Assay (Promega Corp.) according to the manufacturer’s instructions. Compounds were dissolved in 100% DMSO and to make 5- or 10-mM stock solutions. For initial enzyme inhibition tests, 50 µM of inhibitory concentration was used. […] IC50 values were determined in triplicate and reported values are averages of two independent experiments.

SIRT1 [9] = target: T1, SIRT1; test: SIRT-Glo enzyme inhibition assay, SIRT1; conditions: for inhibition at 50 µM: read-out: SIRT1 percentage inhibition at 50 µM compound, 50 µM compound; for selectivity for SIRT2 over SIRT1: SIRT2 versus SIRT1
Description: as §2

[10] = test system: MDA-MB231 breast cancer cells; test: Cell viability (CellTiter-Glo), MDA-MB231; format: cell-based; conditions: Homo sapiens, MDA-MB-231; cellular ATP; read-out: MDA-MB231 LC50
Description: as §1

[11] = test system: Daudi (Burkitt lymphoma) cells; test: Cell viability (CellTiter-Glo), Daudi; format: cell-based; conditions: Homo sapiens, 72 h, cellular ATP, read-out: Daudi LC50
Description: as §1

[12] = test system: PC-3 prostate cancer cells; test: Cell viability (CellTiter-Glo), PC-3; format: cell-based; conditions: cellular ATP; read-out: PC3 LC50
Description: as §1

SIRT3 [13] = target: T2, SIRT3; test: SIRT-Glo enzyme inhibition assay, SIRT3; conditions: for inhibition at 50 µM: read-out: SIRT3 percentage inhibition at 50 µM compound, 50 µM compound; for selectivity for SIRT2 over SIRT3: SIRT2 versus SIRT3
Description: as §2

[14] = test system: α-tubulin acetylation in NCI-H460 cells; test: α-tubulin acetylation by western blot; format: cell-based; conditions: NCI-H460, 0, 5 and 10 µM, 18 h, versus vehicle
Description: To ascertain SIRT2 inhibitory activity of our newly synthesized compounds in a cellular context, we examined acetylation level of α-tubulin, a known SIRT2 substrate. Non-small cell lung cancer cell line NCI-H460 was treated with compound 55 at 0, 5, and 10 µM for 18 h. Cells were harvested, lysed and α-tubulin acetylation was analyzed by western blot (Figure 2).
Figure 2 Determination of α-tubulin acetylation in NCI-H460 cells by western blot following 18 h treatment with 55. GAPDH used as loading control.

OCI DLBCL cells = test: Annexin V staining assay
Description: (§3) OCI DLBCL cells were treated with 56 for 24 h. Cells were lysed and analyzed by western blot assay for cleaved poly-ADP-ribose polymerase (PARP), a well-accepted apoptosis marker [42] (Abcam, Cambridge, UK).

[15] = test system: cleaved PARP in OCI DLBCL cells; test: PARP cleavage by western blot; conditions: 24 h
Description: as §3

N#C/C(=C\c1ccc(-c2cc(Cl)ccc2Cl)o1)C(=O)Nc1cccc2ncccc12 [AGK2, reference compound]
CC50 [1]: 73.2 µM | IC50 (SIRT1 [2]): > 50 µM

COc1cc2ccccc2c(Cc2c(-c3ccc(C)cc3)[nH][nH]c2=O)c1O [Compound 2]
IC50 (SIRT1 [2]; abstract and Figure 1, authors' previous work): 37 µM | IC50 (SIRT3 [3]): > 200 µM | IC50 (SIRT2 [4]): > 200 µM

O=C(NCCO)C(Cc1c(O)ccc2cc(Br)ccc12)C(=O)c1ccc(Br)cc1 (stereo not shown) [Compound 48, 2-[(6-Bromo-2-hydroxynaphthalen-1-yl)methyl]-3-(4-bromophenyl)-N-(2-hydroxyethyl)-3-oxopropanamide]
CC50 [5]: 11.8 µM | CC50 [1]: 5 µM | CC50 [6]: 10 µM | CC50 [7]: 15.8 µM | IC50 (SIRT2 [8]): 0.52 µM | inhibition at 50 µM (SIRT2 [8]): 96% | inhibition at 50 µM (SIRT1 [9]): 18% | CC50 [10]: 14.7 µM | CC50 [11]: 10.5 µM | CC50 [12]: 11.8 µM | inhibition at 50 µM (SIRT3 [13]): 29%

O=C(NCCO)C(Cc1c(O)ccc2cc(Br)ccc12)C(=O)c1ccc(C(F)(F)F)cc1 (stereo not shown) [Compound 49]
CC50 [5]: 20.2 µM | CC50 [1]: 13.1 µM | CC50 [6]: 16.5 µM | CC50 [7]: 15.7 µM | IC50 (SIRT2 [8]): 0.27 µM | inhibition at 50 µM (SIRT2 [8]): 99% | selectivity for SIRT2 over SIRT1 (SIRT1 [9]): > 400 fold | inhibition at 50 µM (SIRT1 [9]): 15% | CC50 [10]: 23.5 µM | CC50 [11]: 12 µM | CC50 [12]: 18.4 µM | selectivity for SIRT2 over SIRT3 (SIRT3 [13]): > 800 fold | inhibition at 50 µM (SIRT3 [13]): 27%

NC(=O)CCNC(=O)C(Cc1c(O)ccc2cc(Br)ccc12)C(=O)c1ccc(Br)cc1 (stereo not shown) [Compound 51, 2-[(6-Bromo-2-hydroxynaphthalen-1-yl)methyl]-3-(4-bromophenyl)-N-(2-carbamoylethyl)-3-oxopropanamide]
CC50 [1]: 10.2 µM | CC50 [6]: 16.7 µM | CC50 [7]: 25.9 µM | IC50 (SIRT2 [8]): 0.58 µM | inhibition at 50 µM (SIRT2 [8]): 98% | inhibition at 50 µM (SIRT1 [9]): 20% | CC50 [11]: 19.2 µM | inhibition at 50 µM (SIRT3 [13]): 14%

NC(=O)CCNC(=O)C(Cc1c(O)ccc2cc(Br)ccc12)C(=O)c1ccc(C(F)(F)F)cc1 (stereo not shown) [Compound 52, 2-[(6-Bromo-2-hydroxynaphthalen-1-yl)methyl]-N-(2-carbamoylethyl)-3-oxo-3-[4-(trifluoromethyl)phenyl]-propenamide]
CC50 [1]: 25.5 µM | CC50 [6]: 19.4 µM | IC50 (SIRT2 [8]): 0.65 µM | inhibition at 50 µM (SIRT2 [8]): 93% | inhibition at 50 µM (SIRT1 [9]): 0% | CC50 [11]: 28.2 µM | inhibition at 50 µM (SIRT3 [13]): 21%

CNC(=O)CCNC(=O)C(Cc1c(O)ccc2cc(Br)ccc12)C(=O)c1ccc(Cl)cc1 (stereo not shown) [Compound 54, 2-[(6-Bromo-2-hydroxynaphthalen-1-yl)methyl]-3-(4-chlorophenyl)-N-[2-(methylcarbamoyl)ethyl]-3-oxo-propanamide]
CC50 [5]: 18 µM | CC50 [1]: 11.2 µM | CC50 [6]: 18.5 µM | CC50 [7]: 17.3 µM | IC50 (SIRT2 [8]): 0.59 µM | inhibition at 50 µM (SIRT2 [8]): 99% | inhibition at 50 µM (SIRT1 [9]): 12% | CC50 [10]: 23.8 µM | CC50 [11]: 15.8 µM | CC50 [12]: 16.5 µM | inhibition at 50 µM (SIRT3 [13]): 6%

CNC(=O)CCNC(=O)C(Cc1c(O)ccc2cc(Br)ccc12)C(=O)c1ccc(C(F)(F)F)cc1 (stereo not shown) [Compound 55, 2-[(6-Bromo-2-hydroxynaphthalen-1-yl)methyl]-N-[2-(methylcarbamoyl)ethyl]-3-oxo-3-[4-(trifluoromethyl)-phenyl]propenamide]
CC50 [5]: 21.6 µM | α-tubulin acetylation [14]: dose-dependent increase in tubulin acetylation | CC50 [1]: 24.9 µM | CC50 [6]: 11.9 µM | CC50 [7]: 21.1 µM | IC50 (SIRT2 [8]): 0.25 µM | inhibition at 50 µM (SIRT2 [8]): 100% | CC50 [10]: 22.8 µM | CC50 [11]: 11.9 µM | CC50 [12]: 17.2 µM | SIRT3 percentage inhibition at 50 µM compound (SIRT3 [13]): 20% | inhibition at 50 µM (SIRT3 [13]): < 25%

CNC(=O)C(Cc1c(O)ccc2cc(Br)ccc12)C(=O)c1ccc(Br)cc1 (stereo not shown) [Compound 56, 2-[(6-Bromo-2-hydroxynaphthalen-1-yl)methyl]-3-(4-bromophenyl)-N-methyl-3-oxopropanamide]
Q1 (necrotic cell death) cell population (OCI DLBCL cells; 10 µM): 4.6% | Q2 (apoptotic cells) cell population (OCI DLBCL cells; 10 µM): 47.2% | Q3 cell population (OCI DLBCL cells; 10 µM): 39.8% | Q4 cell population (OCI DLBCL cells; 10 µM): 8.4% | Q1 (necrotic cell death) cell population (OCI DLBCL cells; 25 µM): 3.8% | Q2 (apoptotic cells) cell population (OCI DLBCL cells; 25 µM): 75.8% | Q3 cell population (OCI DLBCL cells; 25 µM): 13.5% | Q4 cell population (OCI DLBCL cells; 25 µM): 6.9% | CC50 [1]: 5.7 µM | CC50 [6]: 9.1 µM | PARP cleavage [15]: dose-dependent PARP cleavage | IC50 (SIRT2 [8]): 0.78 µM | inhibition at 50 µM (SIRT2 [8]): 95% | selectivity for SIRT2 over SIRT1 (SIRT1 [9]): > 400 fold | CC50 [11]: 7.1 µM | SIRT3 percentage inhibition at 50 µM compound (SIRT3 [13]): 22% | selectivity for SIRT2 over SIRT3 (SIRT3 [13]): > 800 fold | inhibition at 50 µM (SIRT3 [13]): < 25%
